According to PubChem BioAssay AID248 (DTP/NCI, 2004):
Several values for one entry are separate records, joined by “and”; a condition that tells them apart may be missing. Equal entries are not always repeated. Toxic doses and inconclusive results are not listed. Cut-off read from the data, not from the text of the source: active = T/C of 150% or more; inactive = T/C below 125%.

Tested on: L1210 leukemia ip in BDF1 mice, survival T/C
Experiment: NCI In Vivo Anticancer Drug Screen. Data for tumor model L1210 Leukemia (intraperitoneal) in B6D2F1 (BDF1) mice
Settings: endpoint: mean survival time, higher = longer survival
How it was run: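 Transplanted-tumor mice were given test agent; controls received vehicle only. Survival readings from the two groups were divided (treated over control).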

[1] = dose: 25.0 mg/kg/injection, schedule: Q01DX009 (ip), vehicle: saline
[2] = dose: 50.0 mg/kg/injection, schedule: Q01DX009 (ip), vehicle: saline
[3] = dose: 100.0 mg/kg/injection, schedule: Q01DX009 (ip), vehicle: Klucel (hydroxypropylcellulose) (HPC)
[4] = dose: 100.0 mg/kg/injection, schedule: Q01DX009 (ip), vehicle: saline
[5] = dose: 100.0 mg/kg/injection, schedule: Q04DX003 (ip), vehicle: Klucel (hydroxypropylcellulose) (HPC)
[6] = dose: 200.0 mg/kg/injection, schedule: Q01DX009 (ip), vehicle: Klucel (hydroxypropylcellulose) (HPC)
[7] = dose: 200.0 mg/kg/injection, schedule: Q04DX003 (ip), vehicle: Klucel (hydroxypropylcellulose) (HPC)
[8] = dose: 400.0 mg/kg/injection, schedule: Q01DX009 (ip), vehicle: Klucel (hydroxypropylcellulose) (HPC)
[9] = dose: 400.0 mg/kg/injection, schedule: Q04DX003 (ip), vehicle: Klucel (hydroxypropylcellulose) (HPC)
[10] = dose: 100.0 mg/kg/injection, schedule: Q01DX009 (ip), vehicle: saline with Tween-80
[11] = dose: 200.0 mg/kg/injection, schedule: Q01DX009 (ip), vehicle: saline with Tween-80
[12] = dose: 400.0 mg/kg/injection, schedule: Q01DX009 (ip), vehicle: saline with Tween-80
[13] = dose: 100.0 mg/kg/injection, schedule: Q04DX002 (ip), vehicle: saline with Tween-80
[14] = dose: 400.0 mg/kg/injection, schedule: Q04DX002 (ip), vehicle: saline with Tween-80
[15] = dose: 100.0 mg/kg/injection, schedule: Q01DX001 (ip), vehicle: saline with Tween-80
[16] = dose: 100.0 mg/kg/injection, schedule: Q04DX003 (ip), vehicle: saline with Tween-80
[17] = dose: 200.0 mg/kg/injection, schedule: Q01DX001 (ip), vehicle: saline with Tween-80
[18] = dose: 200.0 mg/kg/injection, schedule: Q04DX002 (ip), vehicle: saline with Tween-80
[19] = dose: 200.0 mg/kg/injection, schedule: Q04DX003 (ip), vehicle: saline with Tween-80
[20] = dose: 400.0 mg/kg/injection, schedule: Q01DX001 (ip), vehicle: saline with Tween-80
[21] = dose: 400.0 mg/kg/injection, schedule: Q04DX003 (ip), vehicle: saline with Tween-80

Measured: T/C

CC(N)(CCCC(=O)O)C(=O)O (centres undefined)
inactive: dose: 176.0 mg/kg/injection, schedule: Q01DX001 (ip), vehicle: carboxymethylcellulose (CMC) 95 % of control | dose: 264.0 mg/kg/injection, schedule: Q01DX001 (ip), vehicle: carboxymethylcellulose (CMC) 100 % of control | dose: 400.0 mg/kg/injection, schedule: Q01DX001 (ip), vehicle: carboxymethylcellulose (CMC) 95 % of control | dose: 600.0 mg/kg/injection, schedule: Q01DX001 (ip), vehicle: carboxymethylcellulose (CMC) 98 % of control

C[N+](C)(C)CCOC(=O)CCC(=O)OCC[N+](C)(C)C
inactive: dose: 1.56 mg/kg/injection, schedule: Q01DX009 (ip), vehicle: saline 94 % of control | dose: 3.12 mg/kg/injection, schedule: Q01DX009 (ip), vehicle: saline 94 % of control

CCOC(=O)c1cnn(-c2ccccc2)c1N
inactive: [1] 104 % of control | [2] 108 % of control | [3] 98 % of control | [4] 105 % of control | [5] 96 % of control | [6] 100 % of control | [7] 100 % of control | [8] 102 % of control | [9] 100 % of control

CC(=O)OCC(=O)[C@@]1(O)CC[C@H]2[C@@H]3CCC4=CC(=O)CC[C@]4(C)[C@H]3C(=O)C[C@@]21C
inactive: dose: 12.5 mg/kg/injection, schedule: Q01DX015 (sc), vehicle: steriod suspending solution 102 % of control | dose: 25.0 mg/kg/injection, schedule: Q01DX015 (sc), vehicle: steriod suspending solution 100 % of control | dose: 50.0 mg/kg/injection, schedule: Q01DX015 (sc), vehicle: steriod suspending solution 100 % of control | dose: 100.0 mg/kg/injection, schedule: Q01DX001 (sc), vehicle: steriod suspending solution 101 % of control | dose: 100.0 mg/kg/injection, schedule: Q01DX015 (sc), vehicle: steriod suspending solution 107 % of control | dose: 100.0 mg/kg/injection, schedule: Q04DX003 (sc), vehicle: steriod suspending solution 108 % of control | dose: 200.0 mg/kg/injection, schedule: Q01DX001 (sc), vehicle: steriod suspending solution 92 % of control | dose: 200.0 mg/kg/injection, schedule: Q01DX015 (sc), vehicle: steriod suspending solution 110 % of control | dose: 200.0 mg/kg/injection, schedule: Q04DX003 (sc), vehicle: steriod suspending solution 102 % of control | dose: 400.0 mg/kg/injection, schedule: Q01DX001 (sc), vehicle: steriod suspending solution 111 % of control | dose: 400.0 mg/kg/injection, schedule: Q01DX015 (sc), vehicle: steriod suspending solution 104 % of control | dose: 400.0 mg/kg/injection, schedule: Q04DX003 (sc), vehicle: steriod suspending solution 98 % of control

CC(C)=CCNC1=NCCN1
inactive: dose: 12.5 mg/kg/injection, schedule: Q01DX009 (ip), vehicle: saline 91 % of control | [1] 94 % of control | [2] 99 % of control

O=C(Nc1ccc(Nc2ccccc2)cc1)Nc1ccccc1F
inactive: [3] 97 % of control | [6] 95 % of control | [8] 97 % of control

CCOC(=O)c1ccc(C(=O)OCC)c(Cl)n1
inactive: [3] 97 % of control | [5] 105 % of control | [6] 95 % of control | [7] 97 % of control | [8] 97 % of control | [9] 102 % of control

CCN(CC)CCNc1nc(-c2cc(C(F)(F)F)cc(C(F)(F)F)c2)nc(C(Cl)(Cl)Cl)n1
inactive: dose: 100.0 mg/kg/injection, schedule: Q04DX002 (ip), vehicle: saline 88 % of control | dose: 200.0 mg/kg/injection, schedule: Q04DX002 (ip), vehicle: saline 101 % of control | dose: 400.0 mg/kg/injection, schedule: Q04DX002 (ip), vehicle: saline 88 % of control

CCN(CC)CCOC(=O)C(S)(c1ccccc1)C1CCCCC1 (centres undefined)
inactive: dose: 75.0 mg/kg/injection, schedule: Q01DX001 (ip), vehicle: other 90 % of control | dose: 150.0 mg/kg/injection, schedule: Q01DX001 (ip), vehicle: other 87 % of control

CC(=O)Oc1c(Br)c(-c2cc([N+](=O)[O-])c(C)c([N+](=O)[O-])c2C)c(OC(C)=O)c(Br)c1-c1cc([N+](=O)[O-])c(C)c([N+](=O)[O-])c1C
inactive: [10] 104 % of control | [11] 91 % of control | [12] 88 % of control

NC(=O)C#CC(N)=O
inactive: [3] 97 % of control | [5] 95 % of control | [6] 109 % of control | [7] 97 % of control | [8] 92 % of control | [9] 92 % of control

CCc1cc(/C=C2\C(=O)C=Cc3ccccc32)c(O)s1
inactive: [13] 89 % of control | [14] 89 % of control

CC(CNC(=O)OCc1ccccc1)C(=O)O (centres undefined)
inactive: [15] 95 % of control | [10] 105 % of control and 117 % of control | [13] 103 % of control | [16] 96 % of control | [17] 93 % of control | [11] 105 % of control and 86 % of control | [18] 100 % of control | [19] 91 % of control | [20] 96 % of control | [12] 94 % of control and 105 % of control | [14] 110 % of control | [21] 95 % of control

CCCCN(CCCC)c1ccc(C(=O)O)cc1
inactive: [10] 100 % of control | [16] 100 % of control | [11] 102 % of control | [19] 98 % of control

O=C1CCCC23C4CCCC4C12C1CCCC13 (centres undefined)
inactive: dose: 100.0 mg/kg/injection, schedule: Q04DX002 (ip), vehicle: gum acacia 100 % of control | dose: 200.0 mg/kg/injection, schedule: Q04DX002 (ip), vehicle: gum acacia 97 % of control | dose: 400.0 mg/kg/injection, schedule: Q04DX002 (ip), vehicle: gum acacia 100 % of control

O=C(NC(=S)Nc1cc(C(F)(F)F)ccc1Cl)c1cccc([N+](=O)[O-])c1
inactive: [15] 105 % of control | [10] 96 % of control and 108 % of control | [16] 99 % of control | [17] 103 % of control | [11] 92 % of control and 99 % of control | [18] 98 % of control and 118 % of control | [19] 103 % of control | [20] 87 % of control | [12] 92 % of control and 94 % of control | [14] 95 % of control and 102 % of control | [21] 89 % of control

O=C(CCl)Nc1ccc(SSc2ccc(NC(=O)CCl)cc2)cc1
inactive: dose: 50.0 mg/kg/injection, schedule: Q04DX003 (ip), vehicle: Klucel (hydroxypropylcellulose) (HPC) 95 % of control | [5] 101 % of control | [7] 101 % of control

CCCCC(=O)NS(=O)(=O)c1ccccc1
inactive: [10] 92 % of control | [16] 94 % of control | [11] 105 % of control | [19] 101 % of control | [12] 107 % of control | [21] 94 % of control

COc1cc(C=Nc2ccc(C(=O)O)c(O)c2)ccc1N(CCCl)CCCl
inactive: dose: 11.0 mg/kg/injection, schedule: Q01DX001 (ip), vehicle: carboxymethylcellulose (CMC) 118 % of control

Cc1ccc(S(=O)(=O)OCCC2CCCCC2COS(=O)(=O)c2ccc(C)cc2)cc1 (centres undefined)
inactive: [4] 100 % of control | [5] 100 % of control | dose: 200.0 mg/kg/injection, schedule: Q01DX009 (ip), vehicle: saline 91 % of control | [7] 99 % of control | dose: 400.0 mg/kg/injection, schedule: Q01DX009 (ip), vehicle: saline 96 % of control | [9] 94 % of control

Brc1cccc2nc(/C=C\c3ccccc3)ccc12
inactive: dose: 100.0 mg/kg/injection, schedule: Q01DX001 (ip), vehicle: other 98 % of control | dose: 200.0 mg/kg/injection, schedule: Q01DX001 (ip), vehicle: other 95 % of control | dose: 400.0 mg/kg/injection, schedule: Q01DX001 (ip), vehicle: other 89 % of control
